Results as given in ChEMBL document CHEMBL4138164, “Thieno[2,3-b]pyridine derivatives are potent anti-platelet drugs, inhibiting platelet activation, aggregation and showing synergy with aspirin” (Eur J Med Chem, 2018).
The source made the active and inactive calls. The calls are words filed in the database; no cut-off is given here.

Key:
[1] = molecular target: P2Y purinoceptor 12 (Homo sapiens) (UniProt Q9H244); experiment: Antagonist activity at P2Y12 in human platelet rich plasma assessed as inhibition of ADP-induced platelet aggregation at 10 uM pretreated for 30 mins followed by ADP addition measured after 5 mins by light transmission aggregometric analysis; format: functional
[2] = molecular target: P2Y purinoceptor 12 (Homo sapiens) (UniProt Q9H244); experiment: Antagonist activity at P2Y12 in human platelet rich plasma assessed as inhibition of collagen-induced platelet aggregation at 10 uM pretreated for 30 mins followed by collagen addition measured after 5 mins by light transmission aggregometric analysis; format: functional
[3] = molecular target: P2Y purinoceptor 12 (Homo sapiens) (UniProt Q9H244); experiment: Antagonist activity at P2Y12 in human platelet rich plasma assessed as inhibition of ADP-induced PAC1 expression at 10 uM pretreated for 30 mins followed by ADP addition measured after 5 mins by flow cytometric analysis; format: functional
[4] = molecular target: P2Y purinoceptor 12 (Homo sapiens) (UniProt Q9H244); experiment: Antagonist activity at P2Y12 in human whole blood assessed as inhibition of ADP-induced platelet-aggregation at 10 uM pretreated for 30 mins followed by ADP addition measured after 5 mins by FITC staining-based flow cytometric analysis; format: functional
Platelet = experiment: Cytotoxicity against platelet in human platelet rich plasma at 100 uM after 48 to 72 hrs; format: cell-based
[5] = molecular target: P2Y purinoceptor 12 (Homo sapiens) (UniProt Q9H244); experiment: Synergistic inhibition of P2Y12 in human platelet rich plasma assessed as inhibition of ADP-induced platelet aggregation at 10 uM pretreated for 30 mins followed by ADP addition measured after 5 mins in presence of aspirin by light transmission aggregometric analysis; format: functional
[6] = molecular target: P2Y purinoceptor 12 (Homo sapiens) (UniProt Q9H244); experiment: Antagonist activity at P2Y12 in human platelet rich plasma assessed as inhibition of ADP-induced CD62P expression at 10 uM pretreated for 30 mins followed by ADP addition measured after 5 mins by flow cytometric analysis; format: functional

Sequence of P2Y purinoceptor 12 (Homo sapiens) (Q9H244 whole entry): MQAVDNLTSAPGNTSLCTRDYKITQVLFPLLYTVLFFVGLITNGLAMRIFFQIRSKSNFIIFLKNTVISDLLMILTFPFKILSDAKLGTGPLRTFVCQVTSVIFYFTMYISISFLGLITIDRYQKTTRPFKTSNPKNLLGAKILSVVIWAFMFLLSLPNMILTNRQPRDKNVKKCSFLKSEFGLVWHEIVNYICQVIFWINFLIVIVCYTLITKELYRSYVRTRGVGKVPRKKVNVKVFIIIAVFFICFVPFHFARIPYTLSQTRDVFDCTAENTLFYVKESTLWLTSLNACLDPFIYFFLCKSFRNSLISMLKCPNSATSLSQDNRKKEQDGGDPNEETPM

Question: `CC(=O)Oc1ccccc1C(=O)O` was tested. Which inhibition [1] did it give?
Answer: The inhibition was “Active”.

Question: How did the inhibition [2] turn out when `Nc1c(C(=O)Nc2cccc(Cl)c2)sc2nc3c(cc12)C(=O)CCC3` was run?
Answer: Its inhibition is “Active”.

Question: And the inhibition [3]?
Answer: Its inhibition is “Active”.

Question: What about the inhibition [4] of the same molecule?
Answer: The inhibition was “Active”.

Question: What about the inhibition [1] of the same molecule?
Answer: Its inhibition is “Active”.

Question: What about the Activity (Platelet) of the same molecule?
Answer: Its Activity is “Non-Toxic”.

Question: And the inhibition [5]?
Answer: Its inhibition is “Active”.

Question: And the inhibition [6]?
Answer: Its inhibition is “Active”.

Question: For `Cc1c(Cl)cccc1NC(=O)c1sc2nc3c(cc2c1N)CCCCC3`, which inhibition [2] is on record?
Answer: Its inhibition is “Active”.

Question: And the inhibition [3]?
Answer: Its inhibition is “Active”.

Question: And the inhibition [4]?
Answer: Its inhibition is “Active”.

Question: What about the inhibition [1] of the same molecule?
Answer: Its inhibition is “Active”.

Question: What about the Activity (Platelet) of the same molecule?
Answer: Its Activity is “Non-Toxic”.

Question: What about the inhibition [5] of the same molecule?
Answer: Its inhibition is “Active”.

Question: What about the inhibition [6] of the same molecule?
Answer: The inhibition was “Active”.

Question: Which inhibition [2] does the source give for `COC(=O)[C@H](c1ccccc1Cl)N1CCc2sccc2C1` here?
Answer: Its inhibition is “inactive”.

Question: What about the inhibition [4] of the same molecule?
Answer: The inhibition was “Active”.

Question: What about the inhibition [1] of the same molecule?
Answer: The inhibition was “Active”.

Question: How did the inhibition [2] turn out when `COc1ccc(NC(=O)c2sc3nc4c(cc3c2N)CCCCCC4)cc1` was run?
Answer: The inhibition was “Active”.

Question: And the inhibition [3]?
Answer: Its inhibition is “Active”.

Question: What about the inhibition [4] of the same molecule?
Answer: The inhibition was “Active”.

Question: What about the inhibition [1] of the same molecule?
Answer: Its inhibition is “Active”.

Question: And the Activity (Platelet)?
Answer: The Activity was “Non-Toxic”.

Question: What about the inhibition [5] of the same molecule?
Answer: The inhibition was “inactive”.

Question: What about the inhibition [6] of the same molecule?
Answer: The inhibition was “Active”.

Question: Which inhibition [2] does the source give for `Cc1c(Br)cccc1NC(=O)c1sc2nc3c(cc2c1N)CCCCCC3` here?
Answer: Its inhibition is “Active”.

Question: What about the inhibition [3] of the same molecule?
Answer: The inhibition was “Active”.

Question: What about the inhibition [4] of the same molecule?
Answer: Its inhibition is “Active”.

Question: What about the inhibition [1] of the same molecule?
Answer: The inhibition was “Active”.

Question: And the Activity (Platelet)?
Answer: Its Activity is “Non-Toxic”.

Question: And the inhibition [5]?
Answer: Its inhibition is “inactive”.

Question: What about the inhibition [6] of the same molecule?
Answer: The inhibition was “Active”.

Question: What does the source list for `Nc1c(C(=O)Nc2ccccc2)sc2nc3c(cc12)CCCCCC3`?
Answer: inhibition [2]: Active; inhibition [3]: Active; inhibition [4]: Active; inhibition [1]: Active; Activity (Platelet): Non-Toxic; inhibition [5]: Active; inhibition [6]: Active

Question: What does the source list for `Nc1c(C(=O)Nc2ccccc2Cl)sc2nc3c(cc12)C(=O)CCC3`?
Answer: inhibition [2]: Active; inhibition [3]: Active; inhibition [4]: Active; inhibition [1]: Active; Activity (Platelet): Non-Toxic; inhibition [5]: Active; inhibition [6]: Active
